From US20140066434A1, “Methods and Compositions for Treating Parkinson's Disease” (ARIAD PHARMACEUTICALS, INC., priority 2011, published 2014)

Experiment: Phase 1 clinical trial, safety

## Cc1ccc(C(=O)Nc2ccc(CN3CCN(C)CC3)c(C(F)(F)F)c2)cc1C#Cc1cnc2cccnn12 [ponatinib, 3-(Imidazo[1,2-b]pyridazin-3-ylethynyl)-4-methyl-N-(4-((4-methylpiperazin-1-yl)methyl)-3-(trifluoromethyl)phenyl)benzamide]
45 mg cohort
  DLTs: a reversible rash was seen with one patient
60 mg cohort
  DLTs: four patients developed reversible pancreatic related DLT (pancreatitis)
2 to 30 mg cohorts
  DLTs: No DLTs
Phase 1, all cohorts
  drug-related adverse events of any grade: anemia: 12%
  drug-related adverse events of any grade: lipase increase: 12%
  drug-related adverse events of any grade: nausea: 12%
  drug-related adverse events of any grade: rash: 12%
  drug-related adverse events of any grade: thrombocytopenia: 25%
Phase 1, mono-hydrochloride salt
  maximum tolerated dose (MTD): 45 mg
